Data as given in patent EP4810483A1, “6- AND 5-HETEROARYL DERIVATIVES AND USE THEREOF” (CMS Research & Development Pte. Ltd., priority 2023, dated 2025).
Where two headings read alike, the source gives them in different places.

Tests used:
[1] = Pharmacokinetic evaluation in mice (IV and PO); assay type: in vivo; details: mouse, plasma, CD-1 mice; for half-life: IV, read-out: Half-life T1/2 (IV) (converted); for AUC(0-t): PO, read-out: Area under the concentration-time curve AUC0-last PO; for bioavailability: read-out: Bioavailability F; for clearance: read-out: Clearance CL; for Cmax: read-out: Peak plasma concentration Cmax; for Vd: read-out: Volume of distribution Vdss
Procedure: Test Method 2: Pharmacokinetic Evaluation in Mice
Assay method: Test compounds were mixed with 5% DMSO / 60% polyethylene glycol (PEG400) / 35% water, vortexed and sonicated to obtain a clear 0.2 mg/mL solution, which was then filtered through a microporous membrane before use. Male CD-1 mice weighing 25-35 g were selected. The candidate compound solution was administered intravenously at a dose of 1 mg/kg. The candidate compound solution was orally administered at a dose of 5 mg/kg after fasting. Blood samples (25 µL each) were collected at 0.083, 0.25, 0.5, 1, 2, 4, 8, 12 and 24 hours after administration, and placed into commercial anticoagulant tubes pre-containing EDTA-K2. The tubes were centrifuged for 10 minutes to separate plasma, which was then stored at -60°C. The content of the target compound in plasma samples was determined by LC/MS/MS method, and pharmacokinetic parameters were calculated using Phoenix WinNonlin software (Pharsight, USA).
Tlast: time of the last detection point. AUC0-last: (Area Under the Concentration-Time Curve) refers to the area enclosed by the plasma drug concentration curve and the time axis. F (Bioavailability) is a measure of the rate and extent to which a drug is absorbed into the systemic circulation, serving as a critical indicator for evaluating the degree of drug absorption. […]

hKCNQ2/3 = molecular target: T1, hKCNQ2/3 (Homo sapiens, UniProt O43525+O43526); experiment: cell-based
T1 construct: expressed in transfected cells; host or cells: CHO
T1 sequence (O43526 whole entry): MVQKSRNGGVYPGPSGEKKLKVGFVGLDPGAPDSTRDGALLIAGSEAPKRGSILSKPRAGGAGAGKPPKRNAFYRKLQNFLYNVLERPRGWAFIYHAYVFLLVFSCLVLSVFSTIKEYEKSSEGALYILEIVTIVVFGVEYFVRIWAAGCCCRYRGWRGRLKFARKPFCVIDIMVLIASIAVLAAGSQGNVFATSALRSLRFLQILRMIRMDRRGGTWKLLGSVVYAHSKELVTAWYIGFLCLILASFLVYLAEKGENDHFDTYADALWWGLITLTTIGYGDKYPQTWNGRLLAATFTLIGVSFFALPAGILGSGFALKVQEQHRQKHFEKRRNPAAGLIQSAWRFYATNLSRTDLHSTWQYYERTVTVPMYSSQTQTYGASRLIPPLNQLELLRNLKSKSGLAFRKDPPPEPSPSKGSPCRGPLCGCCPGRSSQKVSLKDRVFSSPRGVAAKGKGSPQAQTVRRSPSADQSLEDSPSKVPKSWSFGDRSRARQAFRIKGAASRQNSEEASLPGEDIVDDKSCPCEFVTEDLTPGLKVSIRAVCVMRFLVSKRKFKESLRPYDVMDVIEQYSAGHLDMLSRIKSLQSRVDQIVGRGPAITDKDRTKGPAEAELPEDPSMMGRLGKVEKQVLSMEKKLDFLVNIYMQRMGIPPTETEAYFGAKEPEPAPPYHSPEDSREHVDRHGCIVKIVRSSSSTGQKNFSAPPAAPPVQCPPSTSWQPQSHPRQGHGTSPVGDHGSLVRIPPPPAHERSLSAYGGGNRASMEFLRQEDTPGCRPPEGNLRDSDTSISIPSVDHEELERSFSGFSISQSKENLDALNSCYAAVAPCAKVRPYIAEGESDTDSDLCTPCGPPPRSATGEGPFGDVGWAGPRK
T1 sequence (O43525 whole entry): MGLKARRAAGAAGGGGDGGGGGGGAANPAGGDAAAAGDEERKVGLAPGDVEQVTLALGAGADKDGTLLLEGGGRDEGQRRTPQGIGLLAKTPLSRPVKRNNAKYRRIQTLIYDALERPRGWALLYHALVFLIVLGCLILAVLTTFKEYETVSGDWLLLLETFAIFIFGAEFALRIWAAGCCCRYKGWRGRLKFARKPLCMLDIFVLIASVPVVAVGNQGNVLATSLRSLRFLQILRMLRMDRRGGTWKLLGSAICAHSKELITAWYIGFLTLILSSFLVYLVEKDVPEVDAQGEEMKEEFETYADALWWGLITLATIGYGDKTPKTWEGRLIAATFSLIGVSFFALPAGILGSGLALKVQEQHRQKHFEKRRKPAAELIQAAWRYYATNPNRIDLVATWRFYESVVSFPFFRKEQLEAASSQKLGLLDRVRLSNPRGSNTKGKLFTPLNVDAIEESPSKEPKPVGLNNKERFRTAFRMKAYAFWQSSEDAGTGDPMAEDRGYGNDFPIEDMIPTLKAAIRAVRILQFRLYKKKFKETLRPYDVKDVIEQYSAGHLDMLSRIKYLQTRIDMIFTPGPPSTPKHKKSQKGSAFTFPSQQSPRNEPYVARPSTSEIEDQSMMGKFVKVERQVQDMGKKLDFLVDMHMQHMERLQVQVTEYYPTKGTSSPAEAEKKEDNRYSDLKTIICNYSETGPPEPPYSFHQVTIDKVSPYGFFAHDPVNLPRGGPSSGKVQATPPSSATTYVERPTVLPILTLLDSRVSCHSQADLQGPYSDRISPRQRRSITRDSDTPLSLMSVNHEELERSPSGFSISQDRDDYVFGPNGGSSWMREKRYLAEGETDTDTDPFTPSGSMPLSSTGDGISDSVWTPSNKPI
From the text: Test Method 1: hKCNQ2/3 Thallium Flux Assay
Test Objective: To test the in vitro concentration-response relationship of compounds using FLIPR thallium flux assay in CHO cell lines stably expressing hKCNQ2/3.
According to the split ratio, the cells were transferred to another T-75 flask containing complete cell growth medium. Note: To maintain logarithmic growth, the cells should be kept in a subconfluent monolayer state. Based on the cell doubling time, the cells were passaged every 2-3 days.
• (1) Day 1 - Cell preparation: Cells were digested as described above, and cell density and viability were determined using a Cell Countess. The volume of the single-cell suspension was adjusted with complete cell growth medium. Then, hKCNQ2/3_CHO cells were seeded onto PDL-precoated 384-well plates at a density of approximately 20,000 cells/well (30 µL/well). The plates were then incubated overnight in a 37°C, 5% CO2 humidified air incubator. • (2) Day 2 - Compound preparation: Test compounds were diluted with dimethyl sulfoxide (DMSO) to stock concentrations and stored in a -20°C freezer. A compound addition program was set up on the ECHO liquid handler, and compounds were added to the plates using the ECHO liquid handler. Retigabine (RTG) was used as a positive control at a highest concentration of 100 µM with 3-fold serial dilutions for a total of 9 doses. Buffer containing 5 mM K^+ and 1 mM Tl^+ was added to the plates. Notes: 1) K2SO4 and Tl2SO4 were prepared in 1× chloride-free buffer. Depending on the voltage-gated potassium channel involved, the concentrations of Tl^+ and K^+ should be adjusted. Tl^+ concentration is approximately 0.5-5 mM, and K^+ concentration is approximately 5-30 mM. 2) Each 1 mM solution of K2SO4 and Tl2SO4 contains 2 mM K^+ and Tl^+; the final concentration should be calculated based on the ion concentration. 3) TlCl readily precipitates and a chloride-free buffer is required. • (3) Day 2 -Assay testing: Once the cells reached the desired confluence, the cell assay plates were removed from the incubator. Assay buffer and diluted Tl^+ dye (Molecular Devices # R8222) were prepared. The medium was discarded using a Bravo liquid handler, and 25 µL of Tl^+ dye was added to each well. After 1 hour of incubation, the cell assay plates, composite plates and FLIPR tips were placed in the FLIPR^TETRA (Molecular Devices, USA) for FLIPR detection. After setting up the tips, baseline readings were taken for 60 seconds, then 12.5 µL was added from the composite plate (3×) to the cell assay plate, and data were recorded for at least 5 minutes. • (4) Data processing: Maximum signals were generated by the FLIPR software. […] Data quality control: S/B > 2.00, Z factor > 0.50.
• (1) Day 1 - Cell preparation: Cells were digested as described above, and cell density and viability were determined using a Cell Countess. The volume of the single-cell suspension was adjusted with complete cell growth medium. Then, hKCNQ2/3_CHO cells were seeded onto PDL-precoated 384-well plates at a density of approximately 20,000 cells/well (30 µL/well). The plates were then incubated overnight in a 37°C, 5% CO2 humidified air incubator. • (2) Day 2 - Compound preparation: Test compounds were diluted with dimethyl sulfoxide (DMSO) to stock concentrations and stored in a -20°C freezer. A compound addition program was set up on the ECHO liquid handler, and compounds were added to the plates using the ECHO liquid handler. Retigabine (RTG) was used as a positive control at a highest concentration of 100 µM with 3-fold serial dilutions for a total of 9 doses. Buffer containing 5 mM K^+ and 1 mM Tl^+ was added to the plates. Notes: 1) K2SO4 and Tl2SO4 were prepared in 1× chloride-free buffer. Depending on the voltage-gated potassium channel involved, the concentrations of Tl^+ and K^+ should be adjusted. Tl^+ concentration is approximately 0.5 mM -5 mM, and K^+ concentration is approximately 5 mM -30 mM.

[2] = test system: maximal electroshock-induced epilepsy model; experiment: Maximal electroshock-induced epilepsy model, behavioral pharmacodynamics; assay type: in vivo; details: dose 5 mg/kg, oral, one hour before electrical stimulation; male CD-1 mice
From the text: Assay Example 2: Evaluation of the behavioral pharmacodynamics of the test compounds in a maximal electroshock-induced epilepsy model
This study used behavioral tests in male CD-1 mice to investigate the effects of test compounds on acute epileptic seizures behavior induced by maximal electroshock.
Male CD-1 mice (25 to 35g) were used as the experimental animals and fed with standard feed (Beijing Vital River Laboratory Animal Technology Co., Ltd.).
After arriving at the animal facility, the experimental animals needed to acclimatize for at least one week. The mice were observed daily for vital signs, and randomly divided into groups according to their body weights one day before the drug administration. One hour before the electrical stimulation, different dosages of the test compound were orally administered to each group. On the day of the assay, the male CD-1 mice in each group were anesthetized locally at the cornea with 2% lidocaine. Then, silver bipolar electrodes were used to electrically stimulate the cornea of the mice with 18 mA, 60 Hz, a pulse width of 0.6 ms, and a stimulation time of 1 s to induce seizures. Subsequently, the latency of seizures and the duration of limb rigidity in mice after the electrical stimulation were observed, and the protection rate from seizures for each group was statistically analyzed.

Row | Compound | half-life ([1]; dose IV:0.5, PO:2 mg/kg) [h] | half-life ([1]; dose IV:1, PO:5 mg/kg) [h] | AUC(0-t) ([1]; dose IV:0.5, PO:2 mg/kg) [µM·h] | AUC(0-t) ([1]; dose IV:1, PO:5 mg/kg) [µM·h] | bioavailability ([1]; dose IV:0.5, PO:2 mg/kg) [%] | clearance ([1]; dose IV:0.5, PO:2 mg/kg) [mL/min/kg] | Cmax ([1]; dose IV:0.5, PO:2 mg/kg) [nM] | Vd ([1]; dose IV:0.5, PO:2 mg/kg) [L/kg] | bioavailability ([1]; dose IV:1, PO:5 mg/kg) [%] | clearance ([1]; dose IV:1, PO:5 mg/kg) [mL/min/kg] | Cmax ([1]; dose IV:1, PO:5 mg/kg) [nM] | Vd ([1]; dose IV:1, PO:5 mg/kg) [L/kg] | EC50 (hKCNQ2/3) [nM] | Seizure incidence (%) [2] [%]
1 | Cc1c(NC(=O)CC(C)(C)C)n(C)c2cc(Nc3ccc(F)cc3)ccc12 [Compound 1] | 1.83 | 1.63 | 2.04 | 4.57 | 79.6 | 34.8 | 322 | 5.16 | 83.9 | 41.8 | 596 | 5.06 | 960 | 16.7
2 | Cc1c(NC(=O)CC(C)(C)C)n(C)c2cc(Nc3ccc(C(F)(F)F)cc3)ccc12 [Compound 5] | 5.9 | – | – | – | 64 | 9.1 | – | 3.97 | – | – | – | – | 520 | 16.7
3 | Cc1nc(Nc2ccc3c(C)c(NC(=O)CC(C)(C)C)n(C)c3c2)ccc1F [Compound 41] | – | 0.7 | – | 21.4 | – | – | – | – | 78.2 | 8.9 | 4580 | 0.6 | 290 | 0
